We go through one compound from patent publication US20200239398A1, “METHYLENE-CYCLOALKYLACETATE DERIVATIVES AND THEIR USE IN TREATMENT OF NEUROTROPIC CONDITIONS” (Yissum Research Development Company of The Hebrew …, priority 2018, published 2020).

Molecules are shown by their SMILES. Several values for one entry are separate records, joined by “and”; a condition that tells them apart may be missing. Identical values can stand only once. Like-named read-outs stand apart in the source and are kept apart here.

One data set has as its system male C57BL/6 mice. Description: Sensory motor/neurological-neurobehavioral tests (mNSS). As to conditions: 250 mg/kg iv; for Angle of increase / Beam balance (score) / Hind limb (placing test score) / mNSS / Foot fault / Self-suspension time: individual animal; for Foot fault / Self-suspension time: listed as HU-MCA-13, 250 mg/kg. In kind it is in vivo. How it is done:
This pilot study was conducted to obtain acute information of the dose toxicity of HU-MCA-13 (Compound 13 in Scheme 1) in male mice. Male C57BL/6 mice, were injected intravenously with 0.2 ml of HU-MCA-13 in a dose of 250 mg/kg. Mice were monitored for 4 consecutive weeks for autonomic and neurotoxicity symptoms. The mortality and changes on body weight, clinical signs, gross observation, were monitored up to 30 days after treatment. No mortality was found at this high dose of 250 mg/kg. […] The mice were examined once a week for autonomic symptoms by measuring salivation, urinary delivery, pupillary constriction, heart rate, blood pressure, and hair contraction. […] Occurrences of either flaccid or spastic paralysis of the legs were not observed. […] Furthermore, no mice sudden deaths occurred within 24 hours after the injection or during the 4 weeks of observation. […] Sensory motor tests were scored individually and according to the modified neurologic function severity score (mNSS). The data from each individual test and the total score calculated from individual tests that make up the mNSS were measured. The following assays were used: a. beam balance test—mice were placed on a 1-inch wide beam for 60 seconds. A normal response is balance with steady posture for 60 seconds (a score of 0). Deficits are scored if the rat: grasps the side of the beam (a score of 1), hugs the beam and one limb falls down from the beam (a score of 2), hugs the beam and two limbs fall off the beam (a score of 3), attempts to balance on the beam, but falls off from 60 seconds (a score of 4), attempts to balance on the beam but falls off from […], or falls off with no attempt to balance or hang on the beam in <20 seconds (a score of 6); b. foot fault test—forelimb movement dysfunction, while walking on elevated metal grids, was monitored. The animal was placed on horizontal grids (85.5×26.5×20) cm with a glass enclosure for observation. With each weight bearing step, the forelimb can fall or slip between the metal support bars, an event recorded as a foot fault. The total number of forelimb steps and the total number of foot faults were recorded. The percentage of forelimb foot faults to the total steps that occurred within 2 minutes marks the test results; c. hind limb placing test—This test monitors reposition of hind limbs placed down and away from the table edge. The ability to retrieve and place the hind limbs back onto the table was scored. Immediate and complete limb retrieval was scored 0, delayed (>2 seconds) limb retrieval and/or interspersed flailing was scored 1, and no limb retrieval was scored 2; d. Increasing platform angle to slide test—This test monitors the strength and stability of resistance to slide down an inclined platform. It deploys a clean wooden board (60 cm by 40 cm) positioned horizontally. Mice were placed on the board with head facing up the increasing incline. The board then swings to increase the degree of inclination the rat experiences until slipping down the board feet first. The degree of the angle at which the rat relinquishes their grip/stance on the board (slips down) constitute the test results; e. the forelimb whole body suspension test—The test measures grip strength by duration of suspension by forepaws. The rat is suspended on a metal bar (diameter 5 mm) which it tightly holds onto by its forelimbs. The time (seconds) during which each rat could sustain its body weight while holding onto the bar is recorded. The mice drop from the bar onto soft material with no harm. The test was repeated three times and a mean result per rat was used as the score. Cumulatively these sensory motor/neurological findings indicate acute tolerability of 250 mg/kg HU-MCA-13 iv injection in Male C57BL/6 mice.

The target of data set [1] is Adenosine Receptor A2A (ADORA2A) (Homo sapiens, UniProt P29274). Description: SAFETYscan ADORA2A Calcium Flux. In kind it is cell-based. As to conditions: 10 μM HU-MCA-13, read-out: Maximal Response. (In general: Calcium assays in cells follow changes in intracellular calcium, usually with a dye or a luminescent sensor.)
Adenosine Receptor A2A (ADORA2A), sequence (P29274 whole entry): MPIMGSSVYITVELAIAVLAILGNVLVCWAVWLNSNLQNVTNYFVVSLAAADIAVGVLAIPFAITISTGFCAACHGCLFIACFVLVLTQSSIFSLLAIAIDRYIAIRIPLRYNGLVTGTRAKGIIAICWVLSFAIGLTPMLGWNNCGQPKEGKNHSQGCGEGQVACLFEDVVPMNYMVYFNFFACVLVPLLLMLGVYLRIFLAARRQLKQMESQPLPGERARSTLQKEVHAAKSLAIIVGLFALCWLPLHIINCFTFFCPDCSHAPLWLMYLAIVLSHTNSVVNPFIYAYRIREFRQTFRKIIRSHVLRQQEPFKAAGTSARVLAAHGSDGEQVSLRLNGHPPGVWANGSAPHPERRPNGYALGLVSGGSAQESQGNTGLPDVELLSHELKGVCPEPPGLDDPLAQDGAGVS
The target of data set [2] is Voltage-gated L-type calcium channel (CAV1.2) (Homo sapiens, UniProt Q13936). Description: in vitro. Details: dose or concentration left out as unconfirmed.
Voltage-gated L-type calcium channel (CAV1.2), sequence (Q13936 whole entry): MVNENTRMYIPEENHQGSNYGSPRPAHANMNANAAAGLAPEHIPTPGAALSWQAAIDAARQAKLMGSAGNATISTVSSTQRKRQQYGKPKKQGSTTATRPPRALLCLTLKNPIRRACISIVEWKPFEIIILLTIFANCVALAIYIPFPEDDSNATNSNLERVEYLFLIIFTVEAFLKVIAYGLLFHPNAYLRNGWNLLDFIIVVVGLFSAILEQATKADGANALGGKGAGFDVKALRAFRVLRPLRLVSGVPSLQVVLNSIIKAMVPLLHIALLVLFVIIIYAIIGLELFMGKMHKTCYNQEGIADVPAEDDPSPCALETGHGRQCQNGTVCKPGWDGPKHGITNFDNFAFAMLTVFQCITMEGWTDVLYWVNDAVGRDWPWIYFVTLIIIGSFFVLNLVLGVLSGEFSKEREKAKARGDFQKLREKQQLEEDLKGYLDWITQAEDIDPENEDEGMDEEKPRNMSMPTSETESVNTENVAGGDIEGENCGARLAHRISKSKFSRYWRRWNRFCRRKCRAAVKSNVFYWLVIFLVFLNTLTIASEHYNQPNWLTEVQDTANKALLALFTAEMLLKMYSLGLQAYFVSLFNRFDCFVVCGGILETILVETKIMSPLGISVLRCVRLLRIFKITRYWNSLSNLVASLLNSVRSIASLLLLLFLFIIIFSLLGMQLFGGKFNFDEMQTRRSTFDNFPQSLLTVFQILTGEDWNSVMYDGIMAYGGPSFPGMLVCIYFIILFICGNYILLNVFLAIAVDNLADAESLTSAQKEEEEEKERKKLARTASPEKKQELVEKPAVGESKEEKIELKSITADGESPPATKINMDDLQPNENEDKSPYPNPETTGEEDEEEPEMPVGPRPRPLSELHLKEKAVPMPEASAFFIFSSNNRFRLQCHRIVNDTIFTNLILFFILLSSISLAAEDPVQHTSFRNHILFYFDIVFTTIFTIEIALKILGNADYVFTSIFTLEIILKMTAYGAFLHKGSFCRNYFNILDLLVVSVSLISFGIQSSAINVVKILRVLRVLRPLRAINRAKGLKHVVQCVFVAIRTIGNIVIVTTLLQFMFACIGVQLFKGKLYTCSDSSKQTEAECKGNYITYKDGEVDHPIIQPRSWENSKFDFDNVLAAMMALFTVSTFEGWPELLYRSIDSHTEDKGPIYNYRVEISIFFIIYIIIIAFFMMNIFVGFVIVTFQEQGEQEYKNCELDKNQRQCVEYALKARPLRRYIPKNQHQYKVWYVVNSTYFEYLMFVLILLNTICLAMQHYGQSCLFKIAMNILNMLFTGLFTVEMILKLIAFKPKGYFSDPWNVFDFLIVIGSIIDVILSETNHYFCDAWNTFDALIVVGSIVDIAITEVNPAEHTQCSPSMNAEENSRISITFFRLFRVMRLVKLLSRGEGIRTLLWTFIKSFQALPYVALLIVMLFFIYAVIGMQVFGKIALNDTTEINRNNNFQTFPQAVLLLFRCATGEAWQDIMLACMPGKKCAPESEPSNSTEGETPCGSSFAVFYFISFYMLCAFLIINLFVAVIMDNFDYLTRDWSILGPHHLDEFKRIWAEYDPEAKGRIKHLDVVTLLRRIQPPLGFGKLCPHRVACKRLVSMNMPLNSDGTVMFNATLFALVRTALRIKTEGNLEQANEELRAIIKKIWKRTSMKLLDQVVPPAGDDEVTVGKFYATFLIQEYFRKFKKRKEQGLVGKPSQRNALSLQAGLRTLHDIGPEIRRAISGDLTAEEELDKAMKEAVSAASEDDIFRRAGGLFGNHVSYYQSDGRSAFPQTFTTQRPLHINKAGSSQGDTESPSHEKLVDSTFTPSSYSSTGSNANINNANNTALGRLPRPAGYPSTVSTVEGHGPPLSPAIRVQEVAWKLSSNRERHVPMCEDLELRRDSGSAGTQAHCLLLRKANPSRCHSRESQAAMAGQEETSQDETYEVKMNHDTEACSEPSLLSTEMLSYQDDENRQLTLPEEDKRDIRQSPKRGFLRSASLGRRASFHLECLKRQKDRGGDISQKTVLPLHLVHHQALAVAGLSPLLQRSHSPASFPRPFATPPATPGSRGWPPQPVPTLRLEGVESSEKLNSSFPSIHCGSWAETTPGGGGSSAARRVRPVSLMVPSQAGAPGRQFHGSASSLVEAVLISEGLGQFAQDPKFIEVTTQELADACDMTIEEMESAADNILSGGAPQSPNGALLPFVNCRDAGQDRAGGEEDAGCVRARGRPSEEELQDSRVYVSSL
Voltage-gated L-type calcium channel (CAV1.2), sequence (Q08289 whole entry partner): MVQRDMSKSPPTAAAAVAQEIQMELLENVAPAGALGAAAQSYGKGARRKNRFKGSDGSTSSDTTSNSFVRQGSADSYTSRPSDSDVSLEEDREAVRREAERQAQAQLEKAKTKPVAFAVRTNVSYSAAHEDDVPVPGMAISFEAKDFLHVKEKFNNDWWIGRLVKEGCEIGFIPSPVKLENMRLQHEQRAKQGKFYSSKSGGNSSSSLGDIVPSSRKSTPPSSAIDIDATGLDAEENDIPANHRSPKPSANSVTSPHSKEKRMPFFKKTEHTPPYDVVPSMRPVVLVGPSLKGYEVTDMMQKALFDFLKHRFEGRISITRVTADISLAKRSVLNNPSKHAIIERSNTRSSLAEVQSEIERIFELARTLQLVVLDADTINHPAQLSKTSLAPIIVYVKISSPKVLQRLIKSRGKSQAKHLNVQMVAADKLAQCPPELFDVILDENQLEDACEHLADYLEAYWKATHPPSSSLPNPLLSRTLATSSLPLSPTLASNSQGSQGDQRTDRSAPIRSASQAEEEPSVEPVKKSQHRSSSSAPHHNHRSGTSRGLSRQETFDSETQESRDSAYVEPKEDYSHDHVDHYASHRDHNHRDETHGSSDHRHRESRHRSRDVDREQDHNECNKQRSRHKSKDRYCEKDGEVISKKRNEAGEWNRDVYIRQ
Voltage-gated L-type calcium channel (CAV1.2), sequence (P54289 25-946 partner limits assumed): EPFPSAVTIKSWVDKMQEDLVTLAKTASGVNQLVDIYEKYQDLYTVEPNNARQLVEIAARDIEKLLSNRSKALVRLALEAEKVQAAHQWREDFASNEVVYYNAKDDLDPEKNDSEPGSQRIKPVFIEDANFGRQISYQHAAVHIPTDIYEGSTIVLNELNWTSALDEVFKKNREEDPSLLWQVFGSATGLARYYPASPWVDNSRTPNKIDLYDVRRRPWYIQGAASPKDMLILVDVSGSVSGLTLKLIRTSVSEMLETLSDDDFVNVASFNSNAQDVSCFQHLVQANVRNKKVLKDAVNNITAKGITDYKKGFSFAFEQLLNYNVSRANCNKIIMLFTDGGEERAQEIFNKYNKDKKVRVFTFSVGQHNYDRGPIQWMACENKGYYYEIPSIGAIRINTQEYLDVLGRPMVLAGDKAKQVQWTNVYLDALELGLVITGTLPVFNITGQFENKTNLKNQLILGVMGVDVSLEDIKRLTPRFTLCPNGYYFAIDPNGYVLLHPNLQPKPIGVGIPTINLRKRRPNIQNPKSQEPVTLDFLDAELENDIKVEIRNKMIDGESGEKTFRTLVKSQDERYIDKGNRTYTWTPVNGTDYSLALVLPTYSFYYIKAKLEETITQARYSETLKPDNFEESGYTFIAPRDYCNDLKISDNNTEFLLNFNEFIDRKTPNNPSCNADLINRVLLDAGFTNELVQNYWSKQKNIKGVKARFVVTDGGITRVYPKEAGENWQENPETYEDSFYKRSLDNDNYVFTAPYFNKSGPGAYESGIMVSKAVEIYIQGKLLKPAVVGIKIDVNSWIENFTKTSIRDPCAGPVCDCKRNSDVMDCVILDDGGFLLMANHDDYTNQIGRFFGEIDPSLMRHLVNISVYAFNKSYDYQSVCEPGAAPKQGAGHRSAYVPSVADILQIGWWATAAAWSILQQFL
Voltage-gated L-type calcium channel (CAV1.2), sequence (P54289 947-1103 partner limits assumed): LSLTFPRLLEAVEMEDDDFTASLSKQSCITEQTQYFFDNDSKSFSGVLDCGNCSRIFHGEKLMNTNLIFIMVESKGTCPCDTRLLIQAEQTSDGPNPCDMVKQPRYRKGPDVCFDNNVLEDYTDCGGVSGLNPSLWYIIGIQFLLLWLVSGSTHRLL

In the case of `C=CCC1CCC[C@@H](CCC(=O)O)C1=C` (stereo partly shown) [Compound 13], the sensory motor/neurological performance entry in the data set on male C57BL/6 mice (weekly routine motor tests) is on record as “no neurological losses were observed”. In the data set with male C57BL/6 mice (Day 0), the Angle of increase worked out at 35 degrees, the “Beam balance (score)” value came to 0, the “Hind limb (placing test score)” value worked out at 0 and the mNSS is recorded as 0. In the data set with male C57BL/6 mice (Day 0), the Foot fault is 0/34 and 0/41 and 0/38 and 1/48; the Self-suspension time is 8 seconds and 10 seconds (2×) and 9 seconds. For the same compound, in the data set on male C57BL/6 mice (Day 1), the Angle of increase amounted to 35 degrees, the “Beam balance (score)” value came out at 0, the “Hind limb (placing test score)” value worked out at 0 and the mNSS turned out to be 0. In addition, in the data set with male C57BL/6 mice (Day 1), the Foot fault is 0/20 and 0/15 and 0/34 and 0/14; the Self-suspension time is 14 seconds and 12 seconds (2×) and 15 seconds. Moreover, in the data set on male C57BL/6 mice (Day 5), the Angle of increase is on record as 35 degrees, the “Beam balance (score)” value came out at 0, the “Hind limb (placing test score)” value is 0 and the mNSS amounted to 0. Also, in the data set with male C57BL/6 mice (Day 5), the Foot fault is 2/50 and 1/47 and 0/48 and 0/36; the Self-suspension time was 13 seconds (2×) and 15 seconds and 14 seconds. Further, in data set [1] (Agonist mode), the Emax stood at 0%. In addition, the Emax in data set [1] (Antagonist mode) was 4.09%. Further, the Emax in data set [2] is 3.82%.
